# From patent publication US20110182909A1, “Glufosfamide combination therapy” (priority 2004, published 2011)
# Read-outs that look alike come from different tables or passages of the source.
# What was measured:
# [1] = test system: Ramos cells (Burkitt's lymphoma); test: Alamar Blue cell proliferation assay (3 days); format: cell-based; settings: for Cell proliferation as % control: 3 days; for IC50: single agent
# Description: Ramos cells lines (Burkitt's lymphoma) were obtained from the American Type Culture Collection (ATCC, Rockville, Md.). All cell lines were cultured in Dulbecco's modified Eagle's medium supplemented with 10% fetal calf serum, sodium pyruvate, nonessential amino acids, L-glutamine, vitamins, and antibiotics. Cells were maintained in a humidified incubator containing 5% CO2, 21% O2, at 37° C. All chemical reagents were purchased from Sigma Chemical Co. (St. Louis, Mo.) unless otherwise specified. Glufosfamide was provided directly by Threshold Pharmaceuticals and reconstituted in PBS freshly for each study.
# To determine the effect of the combinations of the present invention on cell proliferation, the antiproliferative activity of these combinations was tested in a multi-well Alamar Blue based assay (at 3 days). Cell growth in the presence and absence of the test compound as tabulated in Table 1 was compared, as measured by a fluorescence plate reader at excitation 550 nm and emission 590 nm (see Biosource International Inc., Tech Application Notes, Use of Alainar Blue in the measurement of Cell Viability and Toxicity, Determining IC50). Ramos cells (Burkitt's lymphoma) (ATCC Catalog #CRL-1596), 3000 cells/well/180 μl) were seeded in a 96 well plate in RPMI medium (Invitrogen Corporation, Carlsbad, Calif.) and incubated overnight. After 24 hours, these plates were divided into Control group and 3 day treatment group.
# A test compound (Glufosfamide, Carboplatin, or Etoposide) was added to each plate in the treatment groups at a concentration as tabulated in Tables 1A-1D (in 200 μl of medium, respectively). The cells were incubated for 3 days, followed by staining with AlamarBlue. In the Control group, AlamarBlue was added to the plate at (i) day 0 and (ii) day 3 and measured to establish the control reading. In all the groups, the capacity of the cells to proliferate was measured 17 hours after addition of AlamarBlue using a fluorescence plate reader at excitation 550 nm and emission 590 nm. […] Dose dependent percent inhibition was calculated using Graphpad Prism® (GraphPad Software, Inc.). These values were then applied against the Combination Index (CI) method as described by Chou and Talalay (Chou, T. C. and Talalay, P., Quantitative analysis of dose-effect relationships: The combined effects of multiple drugs or enzyme inhibitors. Adv. Enz. Regul. 22:27-55, 1984) using CalcuSyn software (Biosoft).
# The effect of the combinations of the present invention on cell proliferation was determined by comparing cell growth in the presence and absence of the test combinations as tabulated in the tables below according to the procedure described above.
# [2] = in contrast to ifosfamide; cited from earlier work
# [3] = mesna given concomitantly with ifosfamide; cited from earlier work
smiles,measurement,setting,value
N.N.O=C([O-])C1(C(=O)[O-])CCC1.[Pt+2] [Carboplatin],Cell proliferation as % control,"[1]; Table 1A, Carboplatin 0.4 μM",97 % control
same,Cell proliferation as % control,"[1]; Table 1A, Carboplatin 3.7 μM",94 % control
same,Cell proliferation as % control,"[1]; Table 1A, Carboplatin 11 μM",68 % control
same,Cell proliferation as % control,"[1]; Table 1A, Carboplatin 33 μM",46 % control
same,Cell proliferation as % control,"[1]; Table 1A, Carboplatin 100 μM",0 % control
same,Cell proliferation as % control,"[1]; Table 1A, Carboplatin 300 μM",0 % control
same,IC50,"[1]; Table 1B, 3 days (from Table 1A), read-out: IC50",25 µM
same,Cell proliferation as % control,"[1]; Table 1C, Carboplatin 0.4 μM",98 % control
same,Cell proliferation as % control,"[1]; Table 1C, Carboplatin 3.7 μM",89 % control
same,Cell proliferation as % control,"[1]; Table 1C, Carboplatin 11 μM",74 % control
same,Cell proliferation as % control,"[1]; Table 1C, Carboplatin 33 μM",45 % control
same,Cell proliferation as % control,"[1]; Table 1C, Carboplatin 100 μM",0 % control
same,Cell proliferation as % control,"[1]; Table 1C, Carboplatin 300 μM",0 % control
same,IC50,"[1]; Table 1D, 3 days (from Table 1C), read-out: IC50",25 µM
COc1cc([C@@H]2c3cc4c(cc3[C@@H](O[C@@H]3O[C@@H]5CO[C@@H](C)O[C@H]5[C@H](O)[C@H]3O)[C@H]3COC(=O)[C@H]23)OCO4)cc(OC)c1O [Etoposide],IC50,"[1]; Homo sapiens, 72 h, Table 1B, 3 days (from Table 1A), read-out: IC50",< 0.13 µM
same,IC50,"[1]; Homo sapiens, 72 h, Table 1D, 3 days (from Table 1C), read-out: IC50",0.076 µM
same,Cell proliferation as % control,"[1]; Table 1A, Etoposide 0.13 μM",37 % control
same,Cell proliferation as % control,"[1]; Table 1A, Etoposide 0.4 μM",26 % control
same,Cell proliferation as % control,"[1]; Table 1A, Etoposide 3.7 μM",3 % control
same,Cell proliferation as % control,"[1]; Table 1A, Etoposide 11 μM",0 % control
same,Cell proliferation as % control,"[1]; Table 1A, Etoposide 33 μM",0 % control
same,Cell proliferation as % control,"[1]; Table 1A, Etoposide 100 μM",0 % control
same,Cell proliferation as % control,"[1]; Table 1C, Etoposide 0.004 μM",97 % control
same,Cell proliferation as % control,"[1]; Table 1C, Etoposide 0.013 μM",91 % control
same,Cell proliferation as % control,"[1]; Table 1C, Etoposide 0.04 μM",62 % control
same,Cell proliferation as % control,"[1]; Table 1C, Etoposide 0.37 μM",35 % control
same,Cell proliferation as % control,"[1]; Table 1C, Etoposide 1.1 μM",14 % control
same,Cell proliferation as % control,"[1]; Table 1C, Etoposide 3.3 μM",0 % control
same,Cell proliferation as % control,"[1]; Table 1C, Etoposide 10 μM",0 % control
"O=P(NCCCl)(NCCCl)OC1OC(CO)C(O)C(O)C1O [Glufosfamide, α-D-glucosyl-ifosfamide mustard]",production of chloroacetaldehyde,[2],produces less chloroacetaldehyde
same,release of the toxic metabolite acrolein,[2],does not release the toxic metabolite acrolein
same,IC50,"[1]; Homo sapiens, 72 h, Table 1B, 3 days (from Table 1A)",180 µM
same,IC50,"[1]; Homo sapiens, 72 h, Table 1D, 3 days (from Table 1C)",120 µM
same,Cell proliferation as % control,"[1]; Table 1A, Glufosfamide 0.7 μM",91 % control
same,Cell proliferation as % control,"[1]; Table 1A, Glufosfamide 2 μM",92 % control
same,Cell proliferation as % control,"[1]; Table 1A, Glufosfamide 6 μM",94 % control
same,Cell proliferation as % control,"[1]; Table 1A, Glufosfamide 19 μM",81 % control
same,Cell proliferation as % control,"[1]; Table 1A, Glufosfamide 56 μM",65 % control
same,Cell proliferation as % control,"[1]; Table 1A, Glufosfamide 167 μM",65 % control
same,Cell proliferation as % control,"[1]; Table 1A, Glufosfamide 500 μM",0 % control
same,Cell proliferation as % control,"[1]; Table 1C, Glufosfamide 9 μM",91 % control
same,Cell proliferation as % control,"[1]; Table 1C, Glufosfamide 19 μM",79 % control
same,Cell proliferation as % control,"[1]; Table 1C, Glufosfamide 37.5 μM",70 % control
same,Cell proliferation as % control,"[1]; Table 1C, Glufosfamide 75 μM",64 % control
same,Cell proliferation as % control,"[1]; Table 1C, Glufosfamide 150 μM",54 % control
same,Cell proliferation as % control,"[1]; Table 1C, Glufosfamide 300 μM",11 % control
same,Cell proliferation as % control,"[1]; Table 1C, Glufosfamide 600 μM",0 % control
"O=S(=O)(O)CCS [mesna, mercaptoethane sulfonate sodium]",patients who do not respond to mesna and develop hematuria,[3],up to 6%
